Laboratory results published in patent US9078907B2, “Immunoregulator compounds” (Universita Degli Studi Di Roma “Tor Vergata”, priority 2001, dated 2015).

How the values were obtained:
[1] = system: Mycobacterium smegmatis; experiment: Colony forming units of M. smegmatis in differentiated THP-1 cells; assay type: cell-based; conditions: THP-1, M. smegmatis, S1P 5 μM; ethanol 0.3%, 0.03%, 0.003% (dose dependent) or calphostin C 10 nM
Experimental: Human monocytic THP-1 leukemia line cells were used in this example as a model for macrophage response. In order to obtain macrophage phenotype, 5×10^5/ml THP-1 cells were induced to differentiate by 48 hours incubation in the presence of 20 ng/ml Phorbol Myristate Acetate (PMA). Differentiated THP-1 cells (dTHP-1) were then centrifuged three times and suspended in complete medium [RPMI 1640 (Gibco BRL) supplemented with 10% fetal bovine serum (Gibco BRL), 5 mM L-glutamine (Invitrogen), 1 mM sodium pyruvate (Gibco BRL) and non-essential amino acids (Euroclone)]. dTHP-1 were then infected for 3 hours with M. smegmatis at the multiplicity of infection of bacterium/cell 50:1. Following infection cells were washed three times with RPMI 1640 and incubated in complete medium at 37° C. for further 1, 12 and 24 hours in the presence or absence of sphingosine-1 phosphate used at the concentration of 5 μM.
In order to assess the role of macrophage PLD activity in sphingosine 1-phosphate induced mycobacterial growth control, following the infection the cells were cultured in the presence of various concentrations of ethanol (0.3%, 0.03%, 0.003%) or 10 nM calphostin C. […] Inhibiting activity of calphostin C is exploited by targeting PLD catalytic domain (Sciorra V. A., Hammond S. M., Morris A. J. Potent direct inhibition of mammalian phospholipase D isoenzymes by calphostin c. Biochemistry 2001; 40: 2640-46). Just after the infection and at the indicated time points, cells were 1) lysed using cold PBS containing 0.1% saponin (Sigma, MA, USA), ii) serially diluted in PBS containing 0.01% Tween-80 (Merck, Darmstadt, Germany) and iii) plated in triplicate in Middlebrook 7H10 medium (Becton Dickinson, MD, USA) supplemented with 10% OADC formulation (0.5 mg/ml oleic acid, 50 mg/ml albumin, 20 mg/ml dextrose, 0.04 mg/ml catalase and 8.5 mg/ml sodium chloride). M. smegmatis colonies were enumerated after incubation for 3 days at 37° C.

[2] = system: macrophage PLD; assay type: cell-based, human
[3] = system: macrophages; experiment: ROI generation by dichlorofluorescein (DCF) flow cytometry; assay type: cell-based, human; conditions: lipopolysaccharide stimulated cells, positive control
Experimental: Because dichloro fluorescein (DCF) is a fluorochrome obtained from reaction of non fluorescent 2, 7-dichloro fluorescein diacetate (DCFH) with various oxidants, analysis thereof is used to detect cellular oxidative stress and amount of oxygen reactive intermediates (ROI) produced by phagocytic cells. In the used model, this analysis is employed in order to monitor the D-erythro-sphingosine 1-phosphate (S1P) modulated ROI production from macrophages. Macrophages were incubated for 90 minutes with sphingosine 1-phosphate at 0.5 μM, 5 μM, 10 μM and 50 μM concentrations. After the incubation 100 μl of 0.4 μM DCFH (Calbiochem) were added and incubated for at least 30 minutes. Finally, cells were washed with PBS and analysed using FACScan flow cytometer from Becton Dickinson.

## CCO [ethanol]
[1]
  mycobacterial replication after PLD inhibitor treatment of S1P treated cells: increase

## IFN-γ
[2]
  effect of IFN-γ pre-treatment on PLD activity of infected macrophages: does not modify
  effect of IFN-γ treatment before and/or after infection on levels of macrophage PLD activity: does not appear to modify

## calphostin C
[1]
  mycobacterial replication after PLD inhibitor treatment of S1P treated cells: increase

## lipopolysaccharides [reference compound]
[3]
  DCF positive cells after stimulation: increase
